Measured values from ChEMBL document CHEMBL1154382, “Preliminary SAR analysis of novel antiproliferative N(6),5'-bis-ureidoadenosine derivatives” (2009).

What was measured:
Type in all cases: functional
NCI-H322M = experiment: Antiproliferative activity against human NCI-H322M cells at 10 uM assessed as cell growth inhibition relative to control; conditions: values are per cent of control
SK-MEL-2 = experiment: Antiproliferative activity against human SK-MEL-2 cells
CAKI-1 = experiment: Antiproliferative activity against human Caki1 cells at 10 uM assessed as cell growth inhibition relative to control; conditions: values are per cent of control
NCI-H23 = experiment: Antiproliferative activity against human NCI-H23 cells at 10 uM assessed as cell growth inhibition relative to control; conditions: values are per cent of control
OVCAR-4 [1] = experiment: Antiproliferative activity against human OVCAR4 cells
HT-29 = experiment: Antiproliferative activity against human HT-29 cells at 10 uM assessed as cell growth inhibition relative to control; conditions: values are per cent of control
MDA-MB-468 = experiment: Antiproliferative activity against human MDA-MB-468 cells at 10 uM assessed as cell growth inhibition relative to control; conditions: values are per cent of control
MOLT-4 [2] = experiment: Antiproliferative activity against human MOLT4 cells at 10 uM assessed as cell growth inhibition relative to control; conditions: values are per cent of control
[3] = Antiproliferative activity against human Hs 578T cells
U-251 = experiment: Antiproliferative activity against human U251 cells
Malme-3M [4] = experiment: Antiproliferative activity against human MALME-3M cells at 10 uM assessed as cell growth inhibition relative to control; conditions: values are per cent of control
NCI-H226 = experiment: Antiproliferative activity against human NCI-H226 cells
786-0 = experiment: Antiproliferative activity against human 786-0 cells
HCC 2998 [5] = experiment: Antiproliferative activity against human HCC2998 cells
OVCAR-5 = experiment: Antiproliferative activity against human OVCAR5 cells at 10 uM assessed as cell growth inhibition relative to control; conditions: values are per cent of control
SNB-19 = experiment: Antiproliferative activity against human SNB19 cells
SK-MEL-5 = experiment: Antiproliferative activity against human SK-MEL-5 cells at 10 uM assessed as cell growth inhibition relative to control; conditions: values are per cent of control
HOP-62 [6] = experiment: Antiproliferative activity against human HOP62 cells at 10 uM assessed as cell growth inhibition relative to control; conditions: values are per cent of control
HOP-62 [7] = experiment: Antiproliferative activity against human HOP62 cells
OVCAR-8 [8] = experiment: Antiproliferative activity against human OVCAR8 cells
T47D = experiment: Antiproliferative activity against human T47D cells
MDA-MB-231 = experiment: Antiproliferative activity against human MDA-MB-231 cells at 10 uM assessed as cell growth inhibition relative to control; conditions: values are per cent of control
KM12 = experiment: Antiproliferative activity against human KM12 cells
K562 [9] = experiment: Antiproliferative activity against human K562 cells at 10 uM assessed as cell growth inhibition relative to control; conditions: values are per cent of control
DU-145 = experiment: Antiproliferative activity against human DU145 cells at 10 uM assessed as cell growth inhibition relative to control; conditions: values are per cent of control
NCI-H522 = experiment: Antiproliferative activity against human NCI-H522 cells at 10 uM assessed as cell growth inhibition relative to control; conditions: values are per cent of control
A549 = experiment: Antiproliferative activity against human A549 cells
SW-620 [10] = experiment: Antiproliferative activity against human SW620 cells at 10 uM assessed as cell growth inhibition relative to control; conditions: values are per cent of control
SW-620 [11] = experiment: Antiproliferative activity against human SW620 cells
SF-539 = experiment: Antiproliferative activity against human SF539 cells
SN12C = experiment: Antiproliferative activity against human SN12C cells at 10 uM assessed as cell growth inhibition relative to control; conditions: values are per cent of control
LOX IMVI = experiment: Antiproliferative activity against human LOXIMVI cells at 10 uM assessed as cell growth inhibition relative to control; conditions: values are per cent of control
A498 [12] = experiment: Antiproliferative activity against human A498 cells
HCT-116 = experiment: Antiproliferative activity against human HCT116 cells
A498 [13] = experiment: Antiproliferative activity against human A498 cells at 10 uM assessed as cell growth inhibition relative to control; conditions: values are per cent of control
HCT-15 = experiment: Antiproliferative activity against human HCT15 cells at 10 uM assessed as cell growth inhibition relative to control; conditions: values are per cent of control
IGROV-1 = experiment: Antiproliferative activity against human IGROV1 cells at 10 uM assessed as cell growth inhibition relative to control; conditions: values are per cent of control
OVCAR-4 [14] = experiment: Antiproliferative activity against human OVCAR4 cells at 10 uM assessed as cell growth inhibition relative to control; conditions: values are per cent of control
BT-549 = experiment: Antiproliferative activity against human BT549 cells at 10 uM assessed as cell growth inhibition relative to control; conditions: values are per cent of control
HCC 2998 [15] = experiment: Antiproliferative activity against human HCC2998 cells at 10 uM assessed as cell growth inhibition relative to control; conditions: values are per cent of control
SF-268 = experiment: Antiproliferative activity against human SF268 cells
OVCAR-8 [16] = experiment: Antiproliferative activity against human OVCAR8 cells at 10 uM assessed as cell growth inhibition relative to control; conditions: values are per cent of control
MOLT-4 [17] = experiment: Antiproliferative activity against human MOLT4 cells
Malme-3M [18] = experiment: Antiproliferative activity against human MALME-3M cells
UO-31 = experiment: Antiproliferative activity against human UO31 cells at 10 uM assessed as cell growth inhibition relative to control; conditions: values are per cent of control
TK-10 = experiment: Antiproliferative activity against human TK10 cells at 10 uM assessed as cell growth inhibition relative to control; conditions: values are per cent of control
SNB-75 = experiment: Antiproliferative activity against human SNB75 cells at 10 uM assessed as cell growth inhibition relative to control; conditions: values are per cent of control
[19] = Antiproliferative activity against human […] cells at 10 uM assessed as cell growth inhibition relative to control; conditions: values are per cent of control
K562 [20] = experiment: Antiproliferative activity against human K562 cells
UACC-257 = experiment: Antiproliferative activity against human UACC257 cells at 10 uM assessed as cell growth inhibition relative to control; conditions: values are per cent of control
EKVX = experiment: Antiproliferative activity against human EKVX cells

CCOC(=O)C[C@H]1[C@@H](O[Si](C)(C)C(C)(C)C)[C@H](n2cnc3c(NC(=O)Nc4ccccc4)ncnc32)O[C@@H]1COC(=O)NC
growth, % of control at 10 µM (NCI-H322M): 91%
GI50 (SK-MEL-2): 13.2 µM
growth, % of control at 10 µM (CAKI-1): 61%
growth, % of control at 10 µM (NCI-H23): 88%
GI50 (OVCAR-4 [1]): 10.7 µM
growth, % of control at 10 µM (HT-29): 9%
growth, % of control at 10 µM (MDA-MB-468): 62%
growth, % of control at 10 µM (MOLT-4 [2]): 34%
GI50 [3]: 3.39 µM
GI50 (U-251): 7.57 µM
growth, % of control at 10 µM (Malme-3M [4]): 54%
GI50 (NCI-H226): 11.8 µM
GI50 (786-0): 7.94 µM
GI50 (HCC 2998 [5]): 8.76 µM
growth, % of control at 10 µM (OVCAR-5): 94%
GI50 (SNB-19): 49.2 µM
growth, % of control at 10 µM (SK-MEL-5): 24%
growth, % of control at 10 µM (HOP-62 [6]): 77%
GI50 (HOP-62 [7]): 14.7 µM
GI50 (OVCAR-8 [8]): 10.3 µM
GI50 (T47D): 4.95 µM
growth, % of control at 10 µM (MDA-MB-231): 72%
GI50 (KM12): 3.21 µM
growth, % of control at 10 µM (K562 [9]): 23%
growth, % of control at 10 µM (DU-145): 59%
growth, % of control at 10 µM (NCI-H522): 45%
GI50 (A549): 6.93 µM
growth, % of control at 10 µM (SW-620 [10]): 72%
GI50 (SW-620 [11]): 4.59 µM
GI50 (SF-539): 11.5 µM
growth, % of control at 10 µM (SN12C): 35%
growth, % of control at 10 µM (LOX IMVI): 49%
GI50 (A498 [12]): 4.65 µM
GI50 (HCT-116): 2.33 µM
growth, % of control at 10 µM (A498 [13]): 77%
growth, % of control at 10 µM (HCT-15): 52%
growth, % of control at 10 µM (IGROV-1): 49%
growth, % of control at 10 µM (OVCAR-4 [14]): 42%
growth, % of control at 10 µM (BT-549): 65%
growth, % of control at 10 µM (HCC 2998 [15]): -9%
GI50 (SF-268): 5.06 µM
growth, % of control at 10 µM (OVCAR-8 [16]): 74%
GI50 (MOLT-4 [17]): 1.99 µM
GI50 (Malme-3M [18]): 3.34 µM
growth, % of control at 10 µM (UO-31): 42%
growth, % of control at 10 µM (TK-10): 88%
growth, % of control at 10 µM (SNB-75): 45%
growth, % of control at 10 µM [19]: 39%
GI50 (K562 [20]): 3.09 µM
growth, % of control at 10 µM (UACC-257): 60%
GI50 (EKVX): 3.39 µM
